Measured values published in PMC11641365, “Evaluation of In Vitro Biological Activity of Flavanone/Chromanone Derivatives: Molecular Analysis of Anticancer Mechanisms in Colorectal Cancer” (International Journal of Molecular Sciences, 2024).
Like-named read-outs stand apart in the source and are kept apart here. One block for each compound: values may come before it.

Key:
LoVo [1] = assay: MTT cell viability assay; format: cell-based; conditions: Homo sapiens, 24 h incubation with compound, mean ± SD of three experiments, read-out: Cytotoxic effect, IC50
Procedure: (§1) The cytotoxic activity of the 3-benzylideneflavanones, 3-benzylidenechromanones derivatives (compounds 1, 2, 3, 4, 5) and 5′-(3-methoxyphenyl)-2-phenyl-4′,5′-dihydro-4H-spiro[chromano-3,3′-pirazol]-4-one (compound 3a) was evaluated using the MTT assay (4,5-dimethylthiazol-2-yl)-2,5-diphenyltetrazoliumbromide), a colorimetric method that quantifies cell viability.
(§2) Cell viability was determined using the metabolic microplate spectrophotometric assay with Methylthiazolyl diphenyltetrazolium bromide (MTT) (Sigma-Aldrich; St. Louis, MO, USA). The MTT method belongs to metabolic tests for determining cell viability and consists of measuring the absorbance of a violet solution of formazan, a product of the reduction of a water-soluble yellow MTT by oxidoreductive enzymes (mainly mitochondrial succinate dehydrogenase) of living cells. The amount of the reaction product (water-insoluble formazan crystals) is proportional to the number of living and metabolically active cells in the sample. In the case of damaged or dead cells, formazan is formed in smaller amounts, or it is not formed.
(§3) The appropriate number of cells for a given cell line (6–8 × 10^3 cells/mL) were seeded onto colorless, sterile 96-well microplates (Nunc, Roskilde, Denmark) in the number appropriate for a given cell line. After 24 h of culture, various concentrations of the studied compounds (10^−7–10^−5 M) freshly prepared in DMSO (final concentration DMS < 0.1%) and diluted with complete culture medium were added and incubated in a CO2 incubator for 24 h. After this time, the medium was removed; the cell monolayer was washed twice with sterile PBS solution; and fresh culture medium was added to the microplate wells. After 48 h of cell culture, the MTT test was performed. A volume of 50 μL of tetrazolium salt solution (final concentration 0.05 mg/mL) was added to each microplate well. The microplate was placed for 3–4 h (depending on the cell line) in a CO2 incubator. After incubation, 100 μL of DMSO was added to the wells of the microplate to dissolve the purple formazan crystals formed in the living cell environment. The absorbance of the formazan solution, after gentle mixing, was read at a wavelength of λ = 580 nm and a reference wavelength of λ = 720 nm (Biotek Power Wave HT, Biotek Instruments, Winooski, VT, USA). The percentage of living cells was calculated by comparing the absorbance value of the tested samples with the absorbance value of the control (cells not treated with compounds). The absorbance of the control was taken as 100%.

Caco-2 = assay: MTT cell viability assay; format: cell-based, human; conditions: 24 h incubation with compound, mean ± SD of three experiments, read-out: Cytotoxic effect, IC50
Procedure: as §1, §2, §3

HT-29 = assay: MTT cell viability assay; format: cell-based, human; conditions: for IC50: HT-29, 24 h incubation with compound, mean ± SD of three experiments, read-out: Cytotoxic effect, IC50; for IC50 difference, HT-29 vs other cell lines: HT-29, difference of IC50 values, read-out: IC50 in HT-29 higher compared to the other cell lines
Procedure: as §1, §2, §3

SW620 [2] = assay: Mitochondrial membrane potential (ΔΨm), JC-1 probe; format: cell-based, human; conditions: compound at IC50, vs control
Excerpt: Changes in mitochondrial potential in cancer cells exposed to the tested derivatives were monitored using the fluorescent probe JC-1. In non-apoptotic cells, JC-1 aggregates emit red-orange fluorescence. During changes in mitochondrial membrane potential, such as those associated with the initiation of PCD stages (both hyperpolarization and depolarization of mitochondrial membranes), JC-1 is converted to monomers, emitting green fluorescence.
5,5,6,6-Tetrachloro-1,1,3,3-tetraethylbenzimidazolylcarbocyanine iodide (JC-1) is one of the most reliable fluorescent probes used to assess changes in mitochondrial membrane potential (ΔΨ). In living cells with intact mitochondrial membranes, the lipophilic, cationic dye JC-1 penetrates the negatively charged mitochondrial matrix as a monomer, where it forms fluorescent aggregates with red-orange fluorescence (λex = 514 nm, λem = 590). […] The fluorescence ratio of aggregates (λem = 590 nm) and monomers (λem = 529 nm)—590 nm/529 nm—reflects the level of damage to the mitochondrial membrane.
Cells were seeded in black 96-well fluorometric microplates at a density of 10 × 10^3 cells/mL. […] Following treatment, the medium was removed, and the cell monolayers were washed twice with HBSS (140 mM NaCl, 5 mM KCl, 0.8 mM MgCl2, 1.8 mM CaCl2, 1 mM Na2HPO4, 10 mM HEPES, and 1% glucose). Then, 50 μL of a JC-1 solution in HBSS was added to each well, and the cells were incubated for 30 min in the dark at 37 °C (final JC-1 concentration 5 μM). After removing the fluorescent dye and replacing it with fresh HBSS, fluorescence measurements were taken using a Perkin-Elmer LS-5B spectrofluorometer (Perkin-Elmer LS-5B spectrofluorometer, Waltham, MA, USA). The excitation and emission wavelengths for JC-1 monomers were 514 nm and 529 nm, respectively, while for aggregates, they were 514 nm and 590 nm. The results were expressed as a percentage change in the fluorescence ratio of JC-1 aggregates to JC-1 monomers compared to the control, which was set at 100%.

LoVo [3] = assay: Autophagy induction, monodansylcadaverine (MDC) fluorescence; format: cell-based, human; conditions: compound at IC50, 24 h, vs control
Procedure: (§4) Autophagy induction in cells treated with the tested drugs was determined by measuring Monodansylcadaverine (MDC; Sigma-Aldrich; St. Louis, MO, USA) fluorescence according to a modified method described by Vázquez. […] In the cell, MDC accumulates in lipid-rich cell membranes. It has been shown that MDC can be used as a dye for detecting autophagy, as it accumulates in autophagolysosomes as a result of interaction with membrane lipids.
(§5) Cells were seeded in black 96-well fluorometric microplates at a density of 10 × 10^3 cells/mL. […] Following compound incubation, the medium was removed, and the cell monolayers were washed twice with HBSS (140 mM NaCl, 5 mM KCl, 0.8 mM MgCl2, 1.8 mM CaCl2, 1 mM Na2HPO4, 10 mM HEPES, and 1% glucose). A solution of MDC at a final concentration of 50 μM was added to each well and incubated in a CO2 cell culture incubator at 37 °C for 15 min. After incubation with MDC, the probe was removed, and the cells were lysed with 50 μL of lysis buffer (10 mM TRIS-HCl; pH 8 containing 0.1% Triton X-100). After lysis, fluorescence was measured at an excitation wavelength of λex = 390 nm and an emission wavelength of λem = 460 nm using a Perkin-Elmer LS-5B spectrofluorometer (Waltham, MA, USA). In order to normalize the number of cells in individual samples, the amount of DNA was determined by adding 50 μL of EB (final concentration 0.2 mM) to each well after measuring the MCB fluorescence and measuring the EB fluorescence at an excitation wavelength of λex = 530 nm and an emission wavelength of λem = 590 nm. The results were calculated as the ratio of MDC fluorescence to EB fluorescence.

SW620 [4] = assay: as above; format: cell-based, human; conditions: compound at IC50, 24 h, vs control
Procedure: as §4, §5

IC50 difference, HT-29 vs other cell lines (HT-29; Homo sapiens): ~10 µM
Compound: O=C1/C(=C/c2ccccc2)COc2ccccc21 [Compound 1]
IC50 (LoVo [1]): 12.6 ± 1.5 µM
IC50 (Caco-2; Homo sapiens, Caco-2, 24 h): 10.2 ± 1.8 µM
IC50 (HT-29; Homo sapiens, HT-29, 24 h): 21.1 ± 1.3 µM
Increase in mitochondrial membrane potential (hyperpolarization) (SW620 [2]): approximately 40%
Increase in MDC fluorescence intensity (autophagy) (LoVo [3]): approximately 20%
Increase in MDC fluorescence intensity (autophagy) (SW620 [4]): approximately 40%

Compound: COc1cccc(/C=C2/C(=O)c3ccccc3OC2c2ccccc2)c1 (centres unmarked) [Compound 3]
IC50 (LoVo [1]): 23.2 ± 1.4 µM
IC50 (Caco-2): 69.9 ± 5.1 µM
IC50 (Caco-2; Homo sapiens, Caco-2, 24 h): ~70 µM
IC50 (HT-29): 117 ± 6.1 µM
IC50 (HT-29; Homo sapiens, HT-29, 24 h): ~115 µM
Increase in mitochondrial membrane potential (hyperpolarization) (SW620 [2]): ~60%
Decrease in MDC fluorescence intensity (LoVo [3]): 20%
Change in MDC fluorescence intensity (SW620 [4]): no significant changes

IC50 difference, HT-29 vs other cell lines (HT-29; Homo sapiens): ~10 µM
Compound: O=C1/C(=C/c2ccccc2)C(c2ccccc2)Oc2ccccc21 (centres unmarked) [Compound 5]
IC50 (LoVo [1]): 19.4 ± 2.1 µM
IC50 (Caco-2): 72.1 ± 1.7 µM
IC50 (Caco-2; Homo sapiens, Caco-2, 24 h): ~70 µM
IC50 (HT-29; Homo sapiens, HT-29, 24 h): 31.1 ± 1.4 µM
Change in mitochondrial membrane potential ΔΨm (SW620 [2]): no statistically significant changes
Change in MDC fluorescence intensity (LoVo [3]): No significant changes
Decrease in MDC fluorescence intensity (SW620 [4]): 20%
